What is called IC50 is the concentration needed to halve the response being measured. In general, EC50 refers to the concentration needed to bring the measured effect to its halfway point.

The results in this text go back to ChEMBL document CHEMBL2346508, “Bifunctional inhibition of HIV-1 reverse transcriptase: a first step in designing a bifunctional triphosphate” (Bioorg Med Chem Lett, 2013).

In one assay the test system is MT2. The experiment in a line: Cytotoxicity against human MT2 cells after 5 days by MTT assay. The class given is cell-based. Conditions: MT2, 120 h. (Formazan colour is commonly taken as a measure of viable cells.)
In assay [1] the test system is Human immunodeficiency virus 1. The assay is described as follows: Antiviral activity against HIV-1 infected un MT2 cells assessed as virus-induced cytopathicity after 5 days by MTT assay. The class given is functional, organism-based. Conditions: Human immunodeficiency virus 1, MT2, 120 h. (In general: Damage to the host cells serves as the signal in cytopathic effect assays.)

Assay [2] deals with Human immunodeficiency virus type 1 reverse transcriptase (Human immunodeficiency virus 1) (UniProt Q72547). The experiment in a line: Inhibition of HIV-1 RT assessed as inhibition of annealing of D23/D36 primer/template at 150 uM by polyacrylamide denaturing gel-based incorporation assay.

The source made the active and inactive calls. No cut-off for these calls is given here.

Turning to `Cc1cn([C@H]2C=C[C@@H](CO)O2)c(=O)[nH]c1=O` [STAVUDINE], the half-maximal inhibitory concentration (IC50) with MT2 was greater than 100 µM. In addition, the EC50 in assay [1] was 2.2 µM. The matching figures for `CC(C)=CCN1Cc2c(OCCOCCOCCOCCOC(=O)CCc3cn([C@H]4C=C[C@@H](CO)O4)c(=O)[nH]c3=O)ccc3[nH]c(=S)n(c23)C[C@@H]1C`: greater than 100 µM and 45 µM. On the same counts, the results for `CC(C)=CCN1Cc2c(OCCOCCOCCOCCOCCOCCOCCOCCOC(=O)CCc3cn([C@H]4C=C[C@@H](CO)O4)c(=O)[nH]c3=O)ccc3[nH]c(=S)n(c23)C[C@@H]1C` are greater than 100 µM and 120 µM. The matching figures for `CC(C)=CCN1Cc2c(OCCOCCOCCOCCOCCOCCn3c(=O)ccn([C@H]4C=C[C@@H](CO)O4)c3=O)ccc3[nH]c(=S)n(c23)C[C@@H]1C`: 38 µM and 20 µM.

As for `CC(C)=CCN1Cc2c(OCCOCCOCCOCCOCCOCCn3c(=O)ccn([C@H]4C=C[C@@H](COP(=O)(O)OP(=O)(O)OP(=O)(O)O)O4)c3=O)ccc3[nH]c(=S)n(c23)C[C@@H]1C`, the inhibition result in assay [2] was “inactive”.

In the assay on MT2, `CC(C)=CCN1Cc2c(OCCOCCOCCOCCOCCOCCOCCOCCO)ccc([N+](=O)[O-])c2NC[C@@H]1C` returned an IC50 greater than 100 µM. Besides, in assay [1], the EC50 amounted to 27 µM. The matching figures for `CC(C)=CCN1Cc2c(OCCOCCOCCOCCOCCOCCOC(=O)CCc3cn([C@H]4C=C[C@@H](CO)O4)c(=O)[nH]c3=O)ccc3[nH]c(=S)n(c23)C[C@@H]1C`: greater than 100 µM and 100 µM.
